Laboratory results published in paper PMC12029531, “Selenium in Action: Exploring the Biological Wonders of Hydroselenite Salts” (Molecules, 2025).
≈ marks a conversion by molar mass, not a printed value. Where two headings read alike, the source gives them in different places.

Key:
[1] = system: Bacillus sphaericus; assay: MIC and MBC, broth micro-dilution; type: cell-based; details: B. sphaericus; for MIC: 24 h
[2] = system: MCF-7 (human breast adenocarcinoma cells); assay: MTT antiproliferative assay; type: cell-based; details: MCF-7, 48 h, mean ± SD
[3] = system: Panc-1 (pancreatic cancer); assay: MTT antiproliferative assay; type: cell-based, human; details: mean ± SD
[4] = system: Escherichia coli; assay: MIC and MBC, broth micro-dilution; type: cell-based; details: E. coli; for MIC: 24 h
[5] = system: Pseudomonas aeruginosa; assay: MIC and MBC, broth micro-dilution; type: cell-based
[6] = system: Staphylococcus epidermidis; assay: MIC and MBC, broth micro-dilution; type: cell-based; details: S. epidermidis; for MIC: 24 h
[7] = system: U251 (glioblastoma cancer); assay: MTT antiproliferative assay; type: cell-based, human; details: U251, 48 h, mean ± SD
[8] = system: Klebsiella pneumoniae; assay: MIC and MBC, broth micro-dilution; type: cell-based; details: K. pneumoniae; for MIC: 24 h
[9] = system: Staphylococcus aureus; assay: MIC and MBC, broth micro-dilution; type: cell-based; details: S. aureus; for MIC: 24 h
[10] = system: DU-145 (prostate cancer); assay: MTT antiproliferative assay; type: cell-based, human; details: DU-145, 48 h, mean ± SD
[11] = system: normal human dermal fibroblasts (NHDF); assay: MTT assay in non-malignant cells; type: cell-based; details: 48 h, mean ± SD
[12] = system: U251 cell line; assay: Cytotoxicity of selenous acid (MTS assay, Figure S60); type: cell-based, human; details: U251, 48 h, 1–100 µM
Text: The striking difference in the potency of Se salts as compared to their corresponding parent compounds raises a question: Could the release of the Se salt part of the molecules be solely responsible for these activities? Nevertheless, after thoroughly analyzing the in vitro antiproliferative activities and the structure of the reported compounds, our initial hypothesis is that the antitumor activity of the new selenium salts might not be due to the release of the Se inorganic, as evinced by the following four experimental outcomes: (1) All the salt compounds should have shown similar efficacy at the same molar concentrations if the toxicity was solely due to the release of the Se salt part. […] To confirm this hypothesis and due to the scarce number of reported antitumor activities of selenous acid, we evaluated H2SeO3 in the U251 cell line in our experimental setup. […] Since the IC50 value of selenous acid is in the range of what is observed for SLT-1-6 (Table 3), the increased antiproliferative activity of the salts might or might not be linked to the release of the Se salt fragment of the molecule. […] Further studies are needed to fully characterize and understand the behavior of these selenous salts.
Figure S58. Dose-response curves of SLT-6 in all the cell lines present in the NCI panel.
Figure S59. […]
Cell viability was assessed using an MTS assay. […]

[13] = system: Panc-1 cells; details: several experimental conditions; cited from earlier work
[14] = Lysinibacillus sphaericus, read-out: MIC
[15] = Lysinibacillus sphaericus, read-out: MBC
[16] = Escherichia coli, read-out: MIC
[17] = Escherichia coli, read-out: MBC
[18] = Pseudomonas aeruginosa; P. aeruginosa; read-out: MBC
[19] = Staphylococcus epidermidis, read-out: MIC
[20] = Staphylococcus epidermidis, read-out: MBC
[21] = Klebsiella pneumoniae, read-out: MBC
[22] = Klebsiella pneumoniae, read-out: MIC
[23] = Staphylococcus aureus, read-out: MIC
[24] = Staphylococcus aureus, read-out: MBC
[25] = Pseudomonas aeruginosa; P. aeruginosa, 24 h; read-out: MIC

Compound | MIC [1, 14] [µg/mL] | MBC [1, 15] [µg/mL] | IC50 [2] [µM] | IC50 ([3]; Homo sapiens, PANC-1, 48 h) [µM] | MIC [4, 16] [µg/mL] | MBC [4, 17] [µg/mL] | MBC [5, 18] [µg/mL] | MBC [6, 20] [µg/mL] | IC50 [7] [µM] | MBC [8, 21] [µg/mL] | MIC [8, 22] [µg/mL] | MIC [9, 23] [µg/mL] | MBC [9, 24] [µg/mL] | IC50 [10] [µM] | MIC ([5]; P. aeruginosa, 24 h) [µg/mL] | MBC [6] [µg/mL] | MIC [6] [µg/mL] | MBC [8] [µg/mL] | MBC [9] [µg/mL] | IC50 [11] [µM] | also measured
COc1cc(Cc2cnc(N)nc2N)cc(OC)c1OC [AB-2, trimethoprim] | 1.56 (≈ 5.37 µM) | 6.25 (≈ 21.5 µM) | > 100 | > 100 | 1.56 (≈ 5.37 µM) | 6.25 (≈ 21.5 µM) | > 200 | > 200 | > 100 | 12.5 (≈ 43.1 µM) | 3.13 (≈ 10.8 µM) | 1.56 (≈ 5.37 µM) | 3.13 (≈ 10.8 µM) | > 100 | – | – | – | – | – | – | MIC ([5]; Pseudomonas aeruginosa, 24 h, P. aeruginosa, 24 h; read-out: MIC): 50 µg/mL (≈ 172 µM); MIC [6, 19]: > 200 µg/mL; IC50 ([11]; Homo sapiens): 6.47 ± 1.79 µM
Nc1ccc(S(=O)(=O)c2ccc(N)cc2)cc1 [AB-3, dapsone] | – | – | > 100 | > 100 | – | – | – | – | > 100 | – | – | – | – | > 100 | >200 | >200 | >200 | >200 | >200 | > 100 | MBC [1]: >200 µg/mL; MIC [1]: >200 µg/mL; MBC [4]: >200 µg/mL; MIC [4]: >200 µg/mL; MBC ([5]; P. aeruginosa): >200 µg/mL; MIC [8]: >200 µg/mL; MIC [9]: >200 µg/mL
Nc1ccc(S(=O)(=O)Nc2ncccn2)cc1 [AB-4, sulfadiazine] | > 200 | > 200 | > 100 | – | > 200 | > 200 | > 200 | > 200 | > 100 | > 200 | > 200 | > 200 | > 200 | > 100 | 50 (≈ 200 µM) | – | >200 | – | – | > 100 | IC50 ([3]; Panc-1, 48 h): > 100 µM
NNC(=O)c1ccncc1 [AB-5, isoniazid] | > 200 | > 200 | > 100 | > 100 | > 200 | > 200 | > 200 | > 200 | > 100 | > 200 | > 200 | > 200 | > 200 | 99.92 ± 0.2 | – | – | – | – | – | 41.2 ± 12.1 | MIC [5, 25]: > 200 µg/mL; MIC [6, 19]: > 200 µg/mL
CNC(C)C1CCC(N)C(OC2C(N)CC(N)C(OC3OCC(C)(O)C(NC)C3O)C2O)O1 (stereo not drawn) [AB-6, gentamicin] | 0.2 (≈ 0.419 µM) | 0.78 (≈ 1.63 µM) | > 100 | – | 25 (≈ 52.3 µM) | 25 (≈ 52.3 µM) | 12.5 (≈ 26.2 µM) | – | > 100 | – | – | 25 (≈ 52.3 µM) | – | > 100 | – | 0.39 (≈ 0.817 µM) | 0.39 (≈ 0.817 µM) | 3.13 (≈ 6.55 µM) | 50 (≈ 105 µM) | > 100 | IC50 ([3]; Panc-1, 48 h): > 100 µM; MIC [5, 25]: 6.56 µg/mL (≈ 13.7 µM); MIC ([8]; Klebsiella pneumoniae): 1.56 µg/mL (≈ 3.27 µM)
O=[Se](O)O [H2SeO3, selenous acid] | – | – | – | – | – | – | – | – | – | – | – | – | – | – | 200 (≈ 1550 µM) | 200 (≈ 1550 µM) | 100 (≈ 775 µM) | 200 (≈ 1550 µM) | 200 (≈ 1550 µM) | – | MBC [1]: 200 µg/mL (≈ 1550 µM); MIC [1]: 100 µg/mL (≈ 775 µM); MBC [4]: >200 µg/mL; MIC [4]: 200 µg/mL (≈ 1550 µM); MBC ([5]; P. aeruginosa): >200 µg/mL; IC50 [12]: 1040 nM; MIC [8]: 100 µg/mL (≈ 775 µM); MIC [9]: 100 µg/mL (≈ 775 µM)
O=[Se]([O-])[O-].[Na+].[Na+] [sodium selenite] | – | – | – | – | – | – | – | – | – | – | – | – | – | – | – | – | – | – | – | – | IC50 [13]: low micromolar range
